The numbers were not newly measured in US20240058331A1, “COMBINATION THERAPIES FOR TREATMENT OF CIRRHOSIS WITH PORTAL HYPERTENSION” (priority 2022, published 2024), which cites them from elsewhere.

The conditions of series [1]: sedation for HVPG assessment.
For a further series, the target named is T1, ETB (Homo sapiens, UniProt P24530).
T1 sequence (P24530 27-442): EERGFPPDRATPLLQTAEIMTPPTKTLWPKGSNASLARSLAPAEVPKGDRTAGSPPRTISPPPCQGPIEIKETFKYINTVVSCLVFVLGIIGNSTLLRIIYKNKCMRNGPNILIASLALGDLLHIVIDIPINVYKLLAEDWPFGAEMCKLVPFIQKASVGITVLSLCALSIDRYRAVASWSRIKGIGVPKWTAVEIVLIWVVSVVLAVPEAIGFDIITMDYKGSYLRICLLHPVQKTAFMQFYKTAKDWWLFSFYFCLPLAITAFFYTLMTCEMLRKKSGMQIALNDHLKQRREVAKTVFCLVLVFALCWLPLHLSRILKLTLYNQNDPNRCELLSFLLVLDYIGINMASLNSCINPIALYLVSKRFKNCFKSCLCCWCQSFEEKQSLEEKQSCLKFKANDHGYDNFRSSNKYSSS
Particulars: up to 50 mM.

For series [2] the following is noted: moderate hepatic impairment vs healthy control participants; expected.
For series [3] the following is noted: unlikely to be clinically relevant with standard midazolam dosing.

With `Cc1ncc2n1-c1ccc(Cl)cc1C(c1ccccc1F)=NC2` [Midazolam], the “influence on HVPG” value in series [1] is listed as “does not influence HVPG”.
Take `COc1nc(C)cnc1NS(=O)(=O)c1cccnc1-c1ccc(-c2nnco2)cc1` [Zibotentan]: the “effect at the ETB” value at ETB is listed as “no effect”. Besides, the “exposure, times higher in participants with moderate hepatic impairment compared to healthy control participants” value in series [2] is 1.45 times. In series [3], the “increase in midazolam exposure” value was 20%.
For the molecule `CCOc1ccc(Cc2cc([C@@H]3O[C@H](CO)[C@@H](O)[C@H](O)[C@H]3O)ccc2Cl)cc1` [Dapagliflozin], the “safety or tolerability signals in participants with renal impairment” value (10 mg once daily, chronic kidney disease (DAPA-CKD) and heart failure (DAPA HF) populations) is listed as “did not lead to any unique safety or tolerability signals”. Besides, the “tolerability in healthy volunteers” value (doses up to 100 mg for 14 days) is “tolerable”.
